Test results from ChEMBL document CHEMBL1201862, “PubChem BioAssay data set” (2004).
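These data come from cells grown in 96-well plates and exposed to compound for 48 hours at five concentrations. At the GI50, growth is halved.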 Activity calls are given as the source filed them. Rule as the data show it: active = GI50 up to about 1.1 µM and inactive = higher.

Assays:
Assay in all cases: NCI anticancer screen, dose series, 48 h
[1] = system: MCF7
[2] = system: NCI-H23
[3] = system: EKVX
[4] = system: HOP-92
[5] = system: RXF 393
[6] = system: A498
[7] = system: UO-31
[8] = system: SK-MEL-28
[9] = system: OVCAR-4
[10] = system: CAKI-1
[11] = system: PC-3
[12] = system: MDA-MB-435
[13] = system: ACHN
[14] = system: HCC 2998
[15] = system: NCI-H226
[16] = system: SNB-19
[17] = system: Malme-3M
[18] = system: MOLT-4
[19] = system: SF-295
[20] = system: HL-60

Row | Structure (SMILES) | GI50 [1] | GI50 [2] | GI50 [3] | GI50 [4] | GI50 [5] | GI50 [6] | GI50 [7] | GI50 [8] | GI50 [9] | GI50 [10] | GI50 [11] | GI50 [12] | GI50 [13] | GI50 [14] | GI50 [15] | GI50 [16] | GI50 [17] | GI50 [18] | GI50 [19] | GI50 [20]
1 | O=C(/C=C/c1ccc(OCc2ccccc2)cc1)NCc1ccc(C(=O)NCc2ccccc2)cc1 | > 100 µM (inactive) | > 100 µM (inactive) | > 100 µM (inactive) | > 100 µM (inactive) | 0.687 µM (active) | > 100 µM (inactive) | > 100 µM (inactive) | > 100 µM (inactive) | > 100 µM (inactive) | > 100 µM (inactive) | > 100 µM (inactive) | > 100 µM (inactive) | > 100 µM (inactive) | > 100 µM (inactive) | > 100 µM (inactive) | > 100 µM (inactive) | > 100 µM (inactive) | > 100 µM (inactive) | > 100 µM (inactive) | 
2 | COC(=O)[C@@H](Cc1ccccc1)N1O[C@]12CCCC[C@@H]2NC(=O)OC(C)(C)C (some centres not stated) | 15.2 µM (inactive) | 21.3 µM (inactive) | 27.9 µM (inactive) | 21.3 µM (inactive) | 25 µM (inactive) | 41.8 µM (inactive) | 14.5 µM (inactive) | 22.1 µM (inactive) | 31.6 µM (inactive) | 35.8 µM (inactive) | 25.6 µM (inactive) | 25.8 µM (inactive) | 18.5 µM (inactive) | 59.6 µM (inactive) | 47.3 µM (inactive) | 74.3 µM (inactive) | 22.1 µM (inactive) | 37.5 µM (inactive) | 55.6 µM (inactive) | 
3 | CCCCC1Cc2ccccc2-c2n1c1ccccc1[n+]2C (configuration not stated) | 8.77 µM (inactive) | 2.17 µM (inactive) | 25.9 µM (inactive) | 20.4 µM (inactive) | 13.3 µM (inactive) | 23.6 µM (inactive) | 66.7 µM (inactive) | 11.3 µM (inactive) | 24.5 µM (inactive) | > 100 µM (inactive) | 5.93 µM (inactive) | 10.3 µM (inactive) | 37.9 µM (inactive) | 5.47 µM (inactive) | 22.3 µM (inactive) |  |  | 12.3 µM (inactive) | 6.92 µM (inactive) | 3.99 µM (inactive)
4 | FC(F)(F)c1ccccc1C1SCC2=Nc3ccccc3CN21 (configuration not stated) | 13.6 µM (inactive) | 11.9 µM (inactive) | 12 µM (inactive) | 17 µM (inactive) | 10.2 µM (inactive) | 17.1 µM (inactive) | 11.8 µM (inactive) | 19.3 µM (inactive) | 15.4 µM (inactive) | 24.9 µM (inactive) | 14.1 µM (inactive) | 22.5 µM (inactive) |  | 14.5 µM (inactive) | 12.6 µM (inactive) | 10.1 µM (inactive) |  | 21.8 µM (inactive) | 13.1 µM (inactive) | 21.3 µM (inactive)
5 | CC(C)=NOC(=O)Nc1cccc2c1OCO2 | > 100 µM (inactive) | > 100 µM (inactive) | > 100 µM (inactive) | > 100 µM (inactive) | > 100 µM (inactive) | > 100 µM (inactive) | > 100 µM (inactive) | > 100 µM (inactive) | > 100 µM (inactive) | > 100 µM (inactive) | > 100 µM (inactive) | > 100 µM (inactive) | 80.9 µM (inactive) | > 100 µM (inactive) | > 100 µM (inactive) | > 100 µM (inactive) | > 100 µM (inactive) | > 100 µM (inactive) | > 100 µM (inactive) | 
6 | C/C(=N\[N+](C)(C)C)c1ccc(C)c(C)c1 | > 10 µM (inactive) | 62.5 µM (inactive) | 7.5 µM (inactive) | > 10 µM (inactive) | 62.8 µM (inactive) | 22.3 µM (inactive) | 77.4 µM (inactive) | > 10 µM (inactive) | 88.1 µM (inactive) | > 10 µM (inactive) | 36.9 µM (inactive) | 96.4 µM (inactive) | > 10 µM (inactive) | > 10 µM (inactive) |  | 42.9 µM (inactive) | > 10 µM (inactive) | > 10 µM (inactive) | 83.6 µM (inactive) | 82.2 µM (inactive)
